Experimental data reported in patent US10004738B2, “Combination treatment comprising administration of 2-amino-3,5,5-trifluoro-3,4,5,6-tetrahydropyridines” (H. Lundbeck A/S, priority 2015, dated 2018).
Structures can show the parent of a compound that is named as a salt. Where two headings read alike, the source gives them in different places.

What was measured:
[1] = Brain and plasma exposure in rats after oral dosing (DMPK analysis); type: in vivo; conditions: male, Sprague Dawley, rat, 3 hours post dose
Method: Young adult Male Sprague Dawley rats of approximately 250 g weight were purchased from Charles River and received 0-30 mg/kg of vehicle (10% HP betaCD+1M MeSO4, pH 2.5) or test compounds (dissolved in vehicle) only by oral gavage (p.o). The compounds are dosed at a volume of 5 ml/kg. Cohorts of 5-10 animals were established for each treatment condition.
At T=180 minutes after initial dosing the animals were stunned and decapitated with a guillotine. Trunk-blood was sampled in EDTA coated tubes after decapitation of the animal. The blood was centrifuged at 2200G at 4° C. for 15 minutes and the plasma was collected and frozen at −80° C. The blood was aliquoted for Aβ ELISA and DMPK analysis. Immediately following sacrifice, the brain was extracted and split into 2 halves. The right hemibrains were snap frozen on dry ice and stored at −80° C. The left half was dissected; with the front forebrain taken for Aβ ELISA and the remainder used for DMPK analysis. These samples were also snap frozen on dry ice and stored at −80° C. until use for analysis.
Compounds 1, 5, 17, 18, and 24 were administered at doses of 10 or 30 mg/kg p.o. and brain and plasma samples were collected at 3 hours post dose and the following exposures and reductions in Aβ40 levels were measured as described above.

BACE1 enzyme = BACE1 enzyme (Homo sapiens (Human), UniProt P56817); test: BACE1 efficacy assay (FRET-based, commercial BACE1 kit); type: biochemical; conditions: test compound 10 μM, 3 nM enzyme, 250 nM substrate
BACE1 enzyme, sequence (P56817 46-501): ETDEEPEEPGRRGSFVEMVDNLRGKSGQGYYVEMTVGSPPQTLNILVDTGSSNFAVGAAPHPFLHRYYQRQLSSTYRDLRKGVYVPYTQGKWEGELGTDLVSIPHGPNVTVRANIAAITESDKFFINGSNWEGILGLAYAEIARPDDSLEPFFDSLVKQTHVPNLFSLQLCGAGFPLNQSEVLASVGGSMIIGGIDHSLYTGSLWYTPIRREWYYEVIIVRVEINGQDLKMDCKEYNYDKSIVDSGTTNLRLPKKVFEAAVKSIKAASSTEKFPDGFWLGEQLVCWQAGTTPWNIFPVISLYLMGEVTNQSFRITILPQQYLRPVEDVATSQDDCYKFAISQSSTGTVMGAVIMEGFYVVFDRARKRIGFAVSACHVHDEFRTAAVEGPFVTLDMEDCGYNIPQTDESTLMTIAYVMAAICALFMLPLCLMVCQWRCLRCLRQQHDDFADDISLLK
Method: The efficacy assay was performed as a FRET-based assay using a commercially available BACE1 kit (Life Technologies, P2985). 2 μl test compound at 10 μM (final concentration) and 15 μl BACE1 enzyme from the kit (final concentration 3 nM) were preincubated for 15 minutes at room temperature before addition of 15 μl of substrate from the kit (250 nM final concentration) and incubated for additional 90 minutes at room temperature. The assay plate was subsequently read in a Pherastar (Ex540/Em590). […] The efficacy of the test compounds was evaluated at 10 μM (final concentration) and defined as the percent inhibition of the enzyme activity using the equation % inhibition=100%−normalized enzyme activity in percent.

[2] = 10 mg/kg p.o., brain, read-out: Exp, brain
[3] = 10 mg/kg p.o., plasma, read-out: Exp, plasma
[4] = 30 mg/kg p.o., brain, read-out: Exp, brain
[5] = 30 mg/kg p.o., plasma, read-out: Exp, plasma

Row | Compound | concentration at 3 h [1, 2] | concentration at 3 h [1, 3] | concentration at 3 h [1, 4] | concentration at 3 h [1, 5] | inhibition at 10 µM (BACE1 enzyme)
1 | Cc1cc(C#N)cnc1C(=O)Nc1ccc(F)c([C@@]2(C)N=C(N)[C@@](C)(F)CC2(F)F)c1 [Compound 18, N-(3-((2R,5S)-6-amino-3,3,5-trifluoro-2,5-dimethyl-2,3,4,5-tetrahydropyridin-2-yl)-4-fluorophenyl)-5-cyano-3-methylpicolinamide] | 412 ng/g | 778 ng/g | 1610 ng/g | 3000 ng/g | 102%
2 | Cc1ccc(C(=O)Nc2ccc(F)c([C@@]3(C)N=C(N)[C@](C)(F)CC3(F)F)c2)o1 [Compound 41, N-(3-((2R,5R)-6-amino-3,3,5-trifluoro-2,5-dimethyl-2,3,4,5-tetrahydropyridin-2-yl)-4-fluorophenyl)-5-methylfuran-2-carboxamide] |  |  |  |  | 93%
3 | C[C@@]1(F)CC(F)(F)[C@@](C)(c2cc(NC(=O)c3ccc(C(F)(F)F)cn3)ccc2F)N=C1N [Compound 28, N-(3-((2R,5R)-6-amino-3,3,5-trifluoro-2,5-dimethyl-2,3,4,5-tetrahydropyridin-2-yl)-4-fluorophenyl)-5-(trifluoromethyl)picolinamide] |  |  |  |  | 102%
4 | Cc1cc(F)cnc1C(=O)Nc1ccc(F)c([C@@]2(C)N=C(N)[C@@](C)(F)CC2(F)F)c1 [Compound 49, N-(3-((2R,5S)-6-amino-3,3,5-trifluoro-2,5-dimethyl-2,3,4,5-tetrahydropyridin-2-yl)-4-fluorophenyl)-5-fluoro-3-methylpicolinamide] |  |  |  |  | 98%
5 | C[C@]1(F)CC(F)(F)[C@@](C)(c2cc(NC(=O)c3ccc(F)cn3)ccc2F)N=C1N [Compound 1, N-(3-((2R,5S)-6-amino-3,3,5-trifluoro-2,5-dimethyl-2,3,4,5-tetrahydropyridin-2-yl)-4-fluorophenyl)-5-fluoropicolinamide] |  |  | 2190 ng/g | 3540 ng/g | 104%
6 | Cc1ncc(C(=O)Nc2ccc(F)c([C@@]3(C)N=C(N)[C@](C)(F)CC3(F)F)c2)o1 [Compound 42, N-(3-((2R,5R)-6-amino-3,3,5-trifluoro-2,5-dimethyl-2,3,4,5-tetrahydropyridin-2-yl)-4-fluorophenyl)-2-methyloxazole-5-carboxamide trifluoroacetic acid salt] |  |  |  |  | 84%
7 | COc1cnc(C(=O)Nc2ccc(F)c([C@@]3(C)N=C(N)[C@@](C)(F)CC3(F)F)c2)cn1 [Compound 5, N-(3-((2R,5S)-6-amino-3,3,5-trifluoro-2,5-dimethyl-2,3,4,5-tetrahydropyridin-2-yl)-4-fluorophenyl)-5-methoxypyrazine-2-carboxamide] | 174 ng/g | 137 ng/g | 954 ng/g | 632 ng/g | 96%
8 | Cn1cnc(C(=O)Nc2ccc(F)c([C@@]3(C)N=C(N)[C@@](C)(F)CC3(F)F)c2)n1 [Compound 22, N-(3-((2R,5S)-6-amino-3,3,5-trifluoro-2,5-dimethyl-2,3,4,5-tetrahydropyridin-2-yl)-4-fluorophenyl)-1-methyl-1H-1,2,4-triazole-3-carboxamide] |  |  |  |  | 92%
9 | [2H]C([2H])([2H])Oc1ccc(C(=O)Nc2ccc(F)c([C@@]3(C)N=C(N)[C@@](C)(F)CC3(F)F)c2)nc1 [Compound 48] |  |  |  |  | 99%
10 | C[C@@]1(F)CC(F)(F)[C@@](C)(c2cc(NC(=O)c3ccn(C(F)F)n3)ccc2F)N=C1N [Compound 23, N-(3-((2R,5R)-6-amino-3,3,5-trifluoro-2,5-dimethyl-2,3,4,5-tetrahydropyridin-2-yl)-4-fluorophenyl)-1-(difluoromethyl)-1H-pyrazole-3-carboxamide] |  |  |  |  | 102%
11 | COc1cnc(C(=O)Nc2ccc(F)c([C@@]3(C)N=C(N)[C@@](C)(F)CC3(F)F)c2)c(F)c1 [Compound 46, N-(3-((2R,5S)-6-amino-3,3,5-trifluoro-2,5-dimethyl-2,3,4,5-tetrahydropyridin-2-yl)-4-fluorophenyl)-3-fluoro-5-methoxypicolinamide] |  |  |  |  | 101%
12 | C[C@]1(F)CC(F)(F)[C@@](C)(c2cc(NC(=O)c3ccc(OC(F)F)cn3)ccc2F)N=C1N [Compound 45, N-(3-((2R,5S)-6-amino-3,3,5-trifluoro-2,5-dimethyl-2,3,4,5-tetrahydropyridin-2-yl)-4-fluorophenyl)-5-(difluoromethoxy)picolinamide] |  |  |  |  | 103%
13 | C[C@@]1(F)CC(F)(F)[C@@](C)(c2cc(NC(=O)c3nc(CF)co3)ccc2F)N=C1N [Compound 30, N-(3-((2R,5R)-6-amino-3,3,5-trifluoro-2,5-dimethyl-2,3,4,5-tetrahydropyridin-2-yl)-4-fluorophenyl)-4-(fluoromethyl)oxazole-2-carboxamide] |  |  |  |  | 103%
14 | Cc1csc(C(=O)Nc2ccc(F)c([C@@]3(C)N=C(N)[C@@](C)(F)CC3(F)F)c2)n1 [Compound 10, N-(3-((2R,5S)-6-amino-3,3,5-trifluoro-2,5-dimethyl-2,3,4,5-tetrahydropyridin-2-yl)-4-fluorophenyl)-4-methylthiazole-2-carboxamide] |  |  |  |  | 102%
15 | C[C@@]1(F)CC(F)(F)[C@@](C)(c2cc(NC(=O)c3nc(CF)cs3)ccc2F)N=C1N [Compound 31, N-(3-((2R,5R)-6-amino-3,3,5-trifluoro-2,5-dimethyl-2,3,4,5-tetrahydropyridin-2-yl)-4-fluorophenyl)-4-(fluoromethyl)thiazole-2-carboxamide] |  |  |  |  | 102%
16 | COc1cnc(C(=O)Nc2ccc(F)c([C@@]3(C)N=C(N)[C@@](C)(F)CC3(F)F)c2)c(C)n1 [Compound 19, N-(3-((2R,5S)-6-amino-3,3,5-trifluoro-2,5-dimethyl-2,3,4,5-tetrahydropyridin-2-yl)-4-fluorophenyl)-5-methoxy-3-methylpyrazine-2-carboxamide] |  |  |  |  | 98%
17 | Cc1csc(C(=O)Nc2ccc(F)c([C@@]3(C)N=C(N)[C@](C)(F)CC3(F)F)c2)n1 [Compound 27, N-(3-((2R,5R)-6-amino-3,3,5-trifluoro-2,5-dimethyl-2,3,4,5-tetrahydropyridin-2-yl)-4-fluorophenyl)-4-methylthiazole-2-carboxamide] |  |  |  |  | 98%
18 | COc1cnc(C(=O)Nc2ccc(F)c([C@@]3(C)N=C(N)[C@](C)(F)CC3(F)F)c2)cn1 [Compound 25, N-(3-((2R,5R)-6-amino-3,3,5-trifluoro-2,5-dimethyl-2,3,4,5-tetrahydropyridin-2-yl)-4-fluorophenyl)-5-methoxypyrazine-2-carboxamide] |  |  |  |  | 102%
19 | C[C@@]1(F)CC(F)(F)[C@@](C)(c2cc(NC(=O)c3cnc(C(F)F)cn3)ccc2F)N=C1N [Compound 24, N-(3-((2R,5R)-6-amino-3,3,5-trifluoro-2,5-dimethyl-2,3,4,5-tetrahydropyridin-2-yl)-4-fluorophenyl)-5-(difluoromethyl)pyrazine-2-carboxamide] | 134 ng/g | 96.2 ng/g | 809 ng/g | 673 ng/g | 98%
20 | Cc1nc(C(=O)Nc2ccc(F)c([C@@]3(C)N=C(N)[C@](C)(F)CC3(F)F)c2)no1 [Compound 35, N-(3-((2R,5R)-6-amino-3,3,5-trifluoro-2,5-dimethyl-2,3,4,5-tetrahydropyridin-2-yl)-4-fluorophenyl)-5-methyl-1,2,4-oxadiazole-3-carboxamide] |  |  |  |  | 100%
21 | COc1ccc(C(=O)Nc2ccc(F)c([C@@]3(C)N=C(N)[C@@](C)(F)CC3(F)F)c2)nc1 [Compound 17, N-(3-((2R,5S)-6-amino-3,3,5-trifluoro-2,5-dimethyl-2,3,4,5-tetrahydropyridin-2-yl)-4-fluorophenyl)-5-methoxypicolinamide] |  |  | 1220 ng/g | 828 ng/g | 101%
